Measured values as given in patent publication US4433147A, “Process for preparing 10-deazaminopterins” (priority 1982, dated 1984).
“And” between values parts separate entries of the source, which are not always exact repeats. Equal values may be shown once. Read-outs that look alike come from different tables or passages of the source.

Key:
in vivo = conditions: read-out: acute LD50
ascites tumor systems = assay: Ascites tumor systems, summary of Examples 10 to 13; type: in vivo, mice; conditions: all of the ascites tumor systems examined
carrier in tumor = assay: membrane transport by carrier in tumor; type: cell-based
[1] = Plasma and tissue (tumor, small intestine and marrow) pharmacokinetics; type: in vivo; conditions: for Plasma and tissue pharmacokinetics: small intestine and marrow, dAM versus MTX
L1210 leukemia [2] = assay: L1210 leukemia in BD (2) F1 female mice, i.p., increase in median life span (Example 8, Table I); conditions: for Increased life span / Median life span / Weight change: three times per week
Streptococcus faecium = conditions: DeGraw et al., J. Heterocyclic Chem. 8 105 (1971); cited from earlier work
L1210 leukemia [3] = assay: L1210 leukemia in BD (2) F1 female mice, i.p., 10-alkyl derivatives (Example 9, Table II); conditions: for AST / ILS: every two days times five; for antileukemic activity compared with methotrexate: on a similar dosage level
dihydrofolic reductase = conditions: cited from earlier work
[4] = 6.0 mg/kg oral every 2 days × 5

Description for Ehrlich ascites: (§1) ^1 One dose (s.c.) every 2 days for a total of 5 doses.
(§2) ^2 Toxic animals weigh 13-15 g at death (original weight 20 g).
(§3) MST = Median survival time ± standard deviation.
ILS = Increased life span.
Description for L1210 ascites: ^1 One dose every 2 days for a total of 5 doses.
^2 Animals weigh 13-15 g at death (original weight 20 g).
as §3
ILS = increased life span.
Each dose tested 2 to 4 times.
Description for P815 ascites: as §1, §3
ILS = Increased life span.
Each dosage tested twice.
Description for S180-J ascites: as §1, §2, §3
ILS = Increased life span.
Each dose tested 2 to 3 times.

Question: Which “ILS (increased life span)” value (S180-J ascites; 3 mg/kg s.c. every 2 days × 5) does the source give for `Nc1nc(N)c2nc(CCc3ccc(C(=O)N[C@@H](CCC(=O)O)C(=O)O)cc3)cnc2n1` [10-deazaminopterin, 10-Deazaminopterin] here?
Answer: 8.7%

Question: And the “MST (median survival time)” value (S180-J ascites; 3 mg/kg s.c. every 2 days × 5)?
Answer: 13.0 ± 1.1 days

Question: And the “ILS (increased life span)” value (S180-J ascites; 6 mg/kg s.c. every 2 days × 5)?
Answer: 74.8%

Question: And the “MST (median survival time)” value (S180-J ascites; 6 mg/kg s.c. every 2 days × 5)?
Answer: 21.2 ± 1.7 days

Question: And the “ILS (increased life span)” value (S180-J ascites; 9 mg/kg s.c. every 2 days × 5)?
Answer: 117.3%

Question: And the “MST (median survival time)” value (S180-J ascites; 9 mg/kg s.c. every 2 days × 5)?
Answer: 26.3 ± 0.7 days

Question: What about the 60 day survivors (S180-J ascites; 12 mg/kg s.c. every 2 days × 5) of the same compound?
Answer: Two

Question: And the “ILS (increased life span)” value (S180-J ascites; 12 mg/kg s.c. every 2 days × 5)?
Answer: > 159.6%

Question: What about the “MST (median survival time)” value (S180-J ascites; 12 mg/kg s.c. every 2 days × 5) of the same compound?
Answer: > 31.4 ± 2.5 days

Question: And the “ILS (increased life span)” value (S180-J ascites; 18 mg/kg s.c. every 2 days × 5)?
Answer: 54.0%

Question: And the “MST (median survival time)” value (S180-J ascites; 18 mg/kg s.c. every 2 days × 5)?
Answer: 18.6 ± 2.4 days

Question: What about the long-term survivors (S180-J ascites; against S180, s.c.) of the same compound?
Answer: long-term survivors

Question: What about the “Maximum ILS” value (S180-J ascites; against S180, s.c., q2d×5) of the same compound?
Answer: > +160%

Question: What about the “Toxic Deaths” value (S180-J ascites; mouse, in vivo) of the same compound?
Answer: 0/10 and 0/15 and 7/10

Question: What about the LD50 (in vivo) of the same compound?
Answer: 65 mg/kg

Question: What about the “activity compared with methotrexate” value (ascites tumor systems) of the same compound?
Answer: more active than methotrexate

Question: And the “competition for carrier mechanism” value (carrier in tumor; dAM and MTX)?
Answer: compete for the same carrier mechanism

Question: And the “affinity of carrier in tumor” value (carrier in tumor; dAM versus MTX)?
Answer: greater affinity

Question: And the “saturability (Km) for influx” value (carrier in tumor; membrane transport in tumor, dAM versus MTX)?
Answer: favoring greater accumulation of dAM

Question: And the “ILS (increased life span)” value (L1210 ascites; 3 mg/kg oral every 2 days × 5)?
Answer: 77%

Question: What about the “MST (median survival time)” value (L1210 ascites; 3 mg/kg oral every 2 days × 5) of the same compound?
Answer: 11.7 ± 1.0 days

Question: What about the “ILS (increased life span)” value (L1210 ascites; 3 mg/kg s.c. every 2 days × 5) of the same compound?
Answer: 108%

Question: And the “MST (median survival time)” value (L1210 ascites; 3 mg/kg s.c. every 2 days × 5)?
Answer: 13.8 ± 0.7 days

Question: What about the “ILS (increased life span)” value (L1210 ascites; [4]) of the same compound?
Answer: 122%

Question: And the “MST (median survival time)” value (L1210 ascites; [4])?
Answer: 14.7 ± 1.3 days

Question: What about the “ILS (increased life span)” value (L1210 ascites; 6 mg/kg s.c. every 2 days × 5) of the same compound?
Answer: 131%

Question: What about the “MST (median survival time)” value (L1210 ascites; 6 mg/kg s.c. every 2 days × 5) of the same compound?
Answer: 15.2 ± 1.5 days

Question: What about the “ILS (increased life span)” value (L1210 ascites; 9 mg/kg s.c. every 2 days × 5) of the same compound?
Answer: 168%

Question: What about the “MST (median survival time)” value (L1210 ascites; 9 mg/kg s.c. every 2 days × 5) of the same compound?
Answer: 17.8 ± 0.8 days

Question: And the “ILS (increased life span)” value (L1210 ascites; 12 mg/kg s.c. every 2 days × 5)?
Answer: 176%

Question: And the “MST (median survival time)” value (L1210 ascites; 12 mg/kg s.c. every 2 days × 5)?
Answer: 18.2 ± 1.3 days

Question: What about the “Maximum ILS” value (L1210 ascites; against L1210, orally, same dosage and schedule) of the same compound?
Answer: +122%

Question: And the “Maximum ILS” value (L1210 ascites; against L1210, s.c., q2d×5)?
Answer: +172%

Question: And the “Maximum ILS” value (L1210 ascites; ip)?
Answer: +203%

Question: And the “Toxic Deaths” value (L1210 ascites; mouse, in vivo)?
Answer: 0/10 and 0/15 and 1/15 and 0/20

Question: What about the “persistence of exchangeable drug in tumor” value ([1]; optimum dosages, dAM over MTX) of the same compound?
Answer: greater persistence

Question: What about the “Plasma and tissue pharmacokinetics” value [1] of the same compound?
Answer: similar

Question: And the “ILS (increased life span)” value (P815 ascites; 6 mg/kg s.c. every 2 days × 5)?
Answer: 107.6%

Question: And the “MST (median survival time)” value (P815 ascites; 6 mg/kg s.c. every 2 days × 5)?
Answer: 18.2 ± 1.3 days

Question: And the “ILS (increased life span)” value (P815 ascites; 9 mg/kg s.c. every 2 days × 5)?
Answer: 116.3%

Question: What about the “MST (median survival time)” value (P815 ascites; 9 mg/kg s.c. every 2 days × 5) of the same compound?
Answer: 19.0 ± 0.9 days

Question: What about the “ILS (increased life span)” value (P815 ascites; 12 mg/kg s.c. every 2 days × 5) of the same compound?
Answer: 118.4%

Question: What about the “MST (median survival time)” value (P815 ascites; 12 mg/kg s.c. every 2 days × 5) of the same compound?
Answer: 19.2 ± 1.2 days

Question: And the “Maximum ILS” value (P815 ascites; against P815, s.c., q2d×5)?
Answer: +117%

Question: And the “Toxic Deaths” value (P815 ascites; mouse, in vivo)?
Answer: 0/10

Question: What about the Increased life span (L1210 leukemia [2]; 0.1875 mg/kg i.p.) of the same compound?
Answer: 3.0%

Question: What about the Median life span (L1210 leukemia [2]; 0.1875 mg/kg i.p.) of the same compound?
Answer: 7.2 ± 0.6 days

Question: What about the Weight change (L1210 leukemia [2]; 0.1875 mg/kg i.p.) of the same compound?
Answer: +10%

Question: And the Increased life span (L1210 leukemia [2]; 0.375 mg/kg i.p.)?
Answer: 29.7%

Question: What about the Median life span (L1210 leukemia [2]; 0.375 mg/kg i.p.) of the same compound?
Answer: 8.9 ± 1.0 days

Question: What about the Weight change (L1210 leukemia [2]; 0.375 mg/kg i.p.) of the same compound?
Answer: +7%

Question: What about the Increased life span (L1210 leukemia [2]; 3.0 mg/kg i.p.) of the same compound?
Answer: 164.8%

Question: And the Median life span (L1210 leukemia [2]; 3.0 mg/kg i.p.)?
Answer: 13.0 ± 1.9 days

Question: What about the Weight change (L1210 leukemia [2]; 3.0 mg/kg i.p.) of the same compound?
Answer: +5%

Question: What about the Toxicity (L1210 leukemia [2]; 6.0 mg/kg i.p.) of the same compound?
Answer: slight toxicity

Question: And the Increased life span (L1210 leukemia [2]; 6.0 mg/kg i.p.)?
Answer: 210.0%

Question: And the Median life span (L1210 leukemia [2]; 6.0 mg/kg i.p.)?
Answer: 21.8 ± 1.5 days

Question: What about the Weight change (L1210 leukemia [2]; 6.0 mg/kg i.p.) of the same compound?
Answer: -3%

Question: What about the “life span of the test mice” value (L1210 leukemia [2]; i.p.) of the same compound?
Answer: very considerably increased

Question: And the “antileukemic activity compared with methotrexate” value (L1210 leukemia [2]; on a similar dosage level, i.p.)?
Answer: superior to methotrexate

Question: What about the “ILS (increased life span)” value (Ehrlich ascites; 6 mg/kg s.c. every 2 days × 5) of the same compound?
Answer: 34.8%

Question: What about the “MST (median survival time)” value (Ehrlich ascites; 6 mg/kg s.c. every 2 days × 5) of the same compound?
Answer: 23.2 ± 1.8 days

Question: And the “ILS (increased life span)” value (Ehrlich ascites; 9 mg/kg s.c. every 2 days × 5)?
Answer: 58.1%

Question: And the “MST (median survival time)” value (Ehrlich ascites; 9 mg/kg s.c. every 2 days × 5)?
Answer: 27.2 ± 2.2 days

Question: What about the “ILS (increased life span)” value (Ehrlich ascites; 12 mg/kg s.c. every 2 days × 5) of the same compound?
Answer: 64.0%

Question: And the “MST (median survival time)” value (Ehrlich ascites; 12 mg/kg s.c. every 2 days × 5)?
Answer: 28.2 ± 2.9 days

Question: And the “Maximum ILS” value (Ehrlich ascites; against Ehrlich, s.c., q2d×5)?
Answer: +61%

Question: And the “Toxic Deaths” value (Ehrlich ascites; mouse, in vivo)?
Answer: 0/10

Question: For `Nc1nc2ncc(CCc3ccc(C(=O)O)cc3)nc2c(=O)[nH]1` [10-deazapteroic acid], which growth-inhibitory activity (Streptococcus faecium) is on record?
Answer: potent growth-inhibitory activity

Question: What does the source list for `CCC(Cc1cnc2nc(N)nc(N)c2n1)c1ccc(C(=O)N[C@@H](CCC(=O)O)C(=O)O)cc1` (stereo partly shown) [10-ethyl-10-deazaminopterin]?
Answer: AST (L1210 leukemia [3]; 12 mg/kg i.p.): 18.3 ± 1.7 days; ILS (L1210 leukemia [3]; 12 mg/kg i.p.): +172%; AST (L1210 leukemia [3]; 18 mg/kg i.p.): 21.8 ± 1.4 days; ILS (L1210 leukemia [3]; 18 mg/kg i.p.): +220%; life span of the test mice (L1210 leukemia [3]; i.p.): very considerably increased; antileukemic activity compared with methotrexate (L1210 leukemia [3]; i.p.): superior to methotrexate

Question: What does the source list for `CC(Cc1cnc2nc(N)nc(N)c2n1)c1ccc(C(=O)N[C@@H](CCC(=O)O)C(=O)O)cc1` (stereo partly shown) [10-methyl-10-deazaminopterin, 10-Methyl-10-deazaminopterin]?
Answer: AST (L1210 leukemia [3]; 12 mg/kg i.p.): 18.1 ± 1.9 days; ILS (L1210 leukemia [3]; 12 mg/kg i.p.): +170%; AST (L1210 leukemia [3]; 18 mg/kg i.p.): 22.2 ± 1.6 days; ILS (L1210 leukemia [3]; 18 mg/kg i.p.): +230%; life span of the test mice (L1210 leukemia [3]; i.p.): very considerably increased; Toxicity (L1210 leukemia [3]; maximum dose, about 22 mg/kg, i.p.): slight toxicity; antileukemic activity compared with methotrexate (L1210 leukemia [3]; i.p.): superior to methotrexate

Question: What does the source list for `CN(Cc1cnc2nc(N)nc(N)c2n1)c1ccc(C(=O)N[C@@H](CCC(=O)O)C(=O)O)cc1` [Methotrexate, reference compound]?
Answer: LD50 (in vivo; ip or sc): 96 mg/kg; dihydrofolic reductase inhibition (dihydrofolic reductase): powerful dihydrofolic reductase inhibitors; Plasma and tissue pharmacokinetics [1]: similar; MST (median survival time) (P815 ascites; 6 mg/kg s.c. every 2 days × 5): 15.4 ± 1.1 days; Toxic Deaths (P815 ascites; 6 mg/kg s.c. every 2 days × 5): 0/10; MST (median survival time) (P815 ascites; 9 mg/kg s.c. every 2 days × 5): 17.6 ± 1.6 days; Toxic Deaths (P815 ascites; 9 mg/kg s.c. every 2 days × 5): 0/10; MST (median survival time) (P815 ascites; 12 mg/kg s.c. every 2 days × 5): 18.4 ± 1.3 days; Toxic Deaths (P815 ascites; 12 mg/kg s.c. every 2 days × 5): 0/10; Weight change (L1210 leukemia [2]; 3.0 mg/kg i.p.): +8%; Toxicity (L1210 leukemia [2]; 6.0 mg/kg i.p.): Slight toxicity; Weight change (L1210 leukemia [2]; 6.0 mg/kg i.p.): +3%; MST (median survival time) (Ehrlich ascites; 6 mg/kg s.c. every 2 days × 5): 19.8 ± 2.3 days; Toxic Deaths (Ehrlich ascites; 6 mg/kg s.c. every 2 days × 5): 0/10; MST (median survival time) (Ehrlich ascites; 9 mg/kg s.c. every 2 days × 5): 20.8 ± 3.0 days; Toxic Deaths (Ehrlich ascites; 9 mg/kg s.c. every 2 days × 5): 0/10; MST (median survival time) (Ehrlich ascites; 12 mg/kg s.c. every 2 days × 5): 20.2 ± 1.9 days; Toxic Deaths (Ehrlich ascites; 12 mg/kg s.c. every 2 days × 5): 0/10
